# In patent US12139492B2 (Endotarget Inc., priority 2021, dated 2024):
# Like-named read-outs stand apart in the source and are kept apart here.
# Columns and labels:
# [1] = tested on: Mino cells; assay: Antiproliferative effect, MTS cell viability assay, Mino cells; type: cell-based; details: Homo sapiens, MINO, Mino mantle cell lymphoma cells; read-out: IC50 (anti-proliferation) Mino cells
# Protocol: (§1) Antiproliferative effect of the exemplary compounds was assessed in B-cell malignancy models.
# (§2) To assess the effect of the exemplary compounds on cell viability in B-cell malignancy models by degradation of BTK protein, Mino and JeKo-1 cells were treated with varying concentrations of Ibrutinib (0, 0.001, 0.01, 0.1, 1, 10 μM). Under these conditions, cell viability was determined by an MTS assay. Cytotoxicity was assayed by the determination of reduced tetrazolium (formazan) created by metabolically active cells as detected at 490 nm absorbance using a microplate reader (BMG Labtech, Cary, NC, USA).
# (§3) The exemplary compounds attenuated the viability of Mino and JeKo-1 cells in a concentration-dependent manner at 72 h post treatment. Results are shown in Table 1 for each exemplary compound.
# [2] = tested on: JeKo-1 cells; assay: Antiproliferative effect, MTS cell viability assay, JeKo-1 cells; type: cell-based; details: Homo sapiens; JeKo-1 mantle cell lymphoma cells; read-out: IC50 (anti-proliferation) JeKO-1 cells
# Protocol: as §1, §2, §3
# [3] = molecular target: BTK (Homo sapiens, UniProt Q06187); assay: Degradation of BTK protein in Namalwa cells (Western blot; DC50, Dmax); details: for DC50: cell line not given
# [4] = read-out: DC50 (BTK degradation), concentration giving 50% reduction of BTK expression level
# [5] = read-out: Dmax (BTK degradation)
# BTK, sequence (Q06187 whole entry): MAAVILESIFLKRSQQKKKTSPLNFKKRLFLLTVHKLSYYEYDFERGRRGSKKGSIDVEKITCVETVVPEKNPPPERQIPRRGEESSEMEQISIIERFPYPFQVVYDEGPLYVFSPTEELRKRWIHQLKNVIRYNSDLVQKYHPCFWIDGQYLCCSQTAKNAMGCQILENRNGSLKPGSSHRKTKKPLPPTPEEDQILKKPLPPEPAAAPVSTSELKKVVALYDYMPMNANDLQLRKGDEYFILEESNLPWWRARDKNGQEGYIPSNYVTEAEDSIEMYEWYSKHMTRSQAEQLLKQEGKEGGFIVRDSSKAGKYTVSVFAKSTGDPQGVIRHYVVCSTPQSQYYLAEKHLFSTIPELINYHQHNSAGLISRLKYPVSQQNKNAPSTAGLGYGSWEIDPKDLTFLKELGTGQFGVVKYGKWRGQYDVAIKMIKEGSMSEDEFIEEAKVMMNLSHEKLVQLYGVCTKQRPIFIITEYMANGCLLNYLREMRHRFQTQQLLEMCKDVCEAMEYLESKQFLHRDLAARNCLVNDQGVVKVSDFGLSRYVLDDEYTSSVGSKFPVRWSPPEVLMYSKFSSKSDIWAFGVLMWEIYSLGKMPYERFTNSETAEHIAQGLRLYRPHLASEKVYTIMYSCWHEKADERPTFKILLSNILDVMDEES
Compound,IC50 [1],IC50 [2],"DC50 [3, 4]","Dmax [3, 5]",Dmax [3],DC50 ([3]; BTK degradation),"degradation of BTK protein ([3]; Namalwa B lymphocyte cells, various concentrations, 24 hours, Western blot)"
"Nc1ncnc2c1c(-c1ccc(Oc3ccccc3)cc1)nn2[C@@H]1CCCN(CC2CCN(CC3CCN(c4ccc(C(=O)NC5CCC(=O)NC5=O)cc4)CC3)CC2)C1 (stereo partly drawn) [Compound 515, 4-(4-((4-(((R)-3-(4-amino-3-(4-phenoxyphenyl)-1H-pyrazolo[3,4-d]pyrimidin-1-yl)piperidin-1-yl)methyl)piperidin-1-yl)methyl)piperidin-1-yl)-N-(2,6-dioxopiperidin-3-yl)benzamide]",< 1000 nM,1000 to 10000 nM,< 10 nM,> 90%,,,
"Nc1ncnc2c1c(-c1ccc(Oc3ccccc3)cc1)nn2C1CCN(CCCN2CCC(CN3CCC(c4ccc(N5CCC(=O)NC5=O)cc4)CC3)CC2)CC1 [Compound 555, 1-(4-(1-((1-(3-(4-(4-amino-3-(4-phenoxyphenyl)-1H-pyrazolo[3,4-d]pyrimidin-1-yl)piperidin-1-yl)propyl)piperidin-4-yl)methyl)piperidin-4-yl)phenyl)dihydropyrimidine-2,4(1H,3H)-dione]",< 1000 nM,< 1000 nM,10 to 50 nM,> 90%,,,
"Nc1ncnc2c1c(-c1ccc(Oc3ccccc3)cc1)nn2C1CCN(C2CCN(C(=O)N3CCC(N4CCC(c5ccc6c(c5)C(=O)N(C5CCC(=O)NC5=O)C6=O)CC4)CC3)CC2)CC1 (stereo not drawn) [Compound 235, 5-(1′-(4-(4-amino-3-(4-phenoxyphenyl)-1H-pyrazolo[3,4-d]pyrimidin-1-yl)-[1,4′-bipiperidine]-1′-carbonyl)-[1,4′-bipiperidin]-4-yl)-2-(2,6-dioxopiperidin-3-yl)isoindoline-1,3-dione]",1000 to 10000 nM,1000 to 10000 nM,,,> 90%,10 to 50 nM,
"NC(=O)c1c(-c2ccc(Oc3ccccc3)cc2)nn2c1NCC[C@H]2C1CCN(C2CCN(CCN3CCN(c4ccc5c(c4)CN(C4CCC(=O)NC4=O)C5=O)CC3)CC2)CC1 (stereo partly drawn) [Compound 324, (7S)-7-(1′-(2-(4-(2-(2,6-dioxopiperidin-3-yl)-1-oxoisoindolin-5-yl)piperazin-1-yl)ethyl)-[1,4′-bipiperidin]-4-yl)-2-(4-phenoxyphenyl)-4,5,6,7-tetrahydropyrazolo[1,5-a]pyrimidine-3-carboxamide]",1000 to 10000 nM,1000 to 10000 nM,,,> 75%,> 50 nM,
"NC(=O)c1c(-c2ccc(Oc3ccccc3)cc2)nn2c1NCCC2C1CCN(CC2CCN(C(=O)N3CCN(Cc4ccc5c(c4)C(=O)N(C4CCC(=O)NC4=O)C5=O)CC3)CC2)CC1 (stereo not drawn) [Compound 359, 7-(1-((1-(4-((2-(2,6-dioxopiperidin-3-yl)-1,3-dioxoisoindolin-5-yl)methyl)piperazine-1-carbonyl)piperidin-4-yl)methyl)piperidin-4-yl)-2-(4-phenoxyphenyl)-4,5,6,7-tetrahydropyrazolo[1,5-a]pyrimidine-3-carboxamide]",> 10000 nM,> 10000 nM,,,> 50%,> 50 nM,
"NC(=O)c1c(-c2ccc(Oc3ccccc3)cc2)nn2c1NCCC2C1CCN(CC2CCN(C(=O)N3CCN(CC4CCN(c5ccc6c(c5)CN(C5CCC(=O)NC5=O)C6=O)CC4)CC3)CC2)CC1 (stereo not drawn) [Compound 372, 7-(1-((1-(4-((1-(2-(2,6-dioxopiperidin-3-yl)-1-oxoisoindolin-5-yl)piperidin-4-yl)methyl)piperazine-1-carbonyl)piperidin-4-yl)methyl)piperidin-4-yl)-2-(4-phenoxyphenyl)-4,5,6,7-tetrahydropyrazolo[1,5-a]pyrimidine-3-carboxamide]",1000 to 10000 nM,< 1000 nM,,,> 90%,10 to 50 nM,
"NC(=O)c1c(-c2ccc(Oc3ccccc3)cc2)nn2c1NCC[C@H]2C1CCN(C2CCN(C(=O)N3CCC(CN4CCC(c5ccc6c(c5)CN(C5CCC(=O)NC5=O)C6=O)CC4)CC3)CC2)CC1 (stereo partly drawn) [Compound 396, (7S)-7-(1′-(4-((4-(2-(2,6-dioxopiperidin-3-yl)-1-oxoisoindolin-5-yl)piperidin-1-yl)methyl)piperidine-1-carbonyl)-[1,4′-bipiperidin]-4-yl)-2-(4-phenoxyphenyl)-4,5,6,7-tetrahydropyrazolo[1,5-a]pyrimidine-3-carboxamide]",1000 to 10000 nM,> 10000 nM,10 to 50 nM,> 75%,,,
"NC(=O)c1c(-c2ccc(Oc3ccccc3)cc2)nn2c1NCC[C@H]2C1CCN(C2CCN(C(=O)N3CCC(CN4CCN(c5ccc6c(c5)C(=O)N(C5CCC(=O)NC5=O)C6=O)CC4)CC3)CC2)CC1 (stereo partly drawn) [Compound 389, (7S)-7-(1′-(4-((4-(2-(2,6-dioxopiperidin-3-yl)-1,3-dioxoisoindolin-5-yl)piperazin-1-yl)methyl)piperidine-1-carbonyl)-[1,4′-bipiperidin]-4-yl)-2-(4-phenoxyphenyl)-4,5,6,7-tetrahydropyrazolo[1,5-a]pyrimidine-3-carboxamide]",1000 to 10000 nM,1000 to 10000 nM,,,> 90%,10 to 50 nM,
"Nc1ncnc2c1c(-c1ccc(Oc3ccccc3)cc1)nn2C1CCN(CCN2CCN(CCSc3ccc4c(c3)CN(C3CCC(=O)NC3=O)C4=O)CC2)CC1 (stereo not drawn) [Compound 466, 3-(5-((2-(4-(2-(4-(4-amino-3-(4-phenoxyphenyl)-1H-pyrazolo[3,4-d]pyrimidin-1-yl)piperidin-1-yl)ethyl)piperazin-1-yl)ethyl)thio)-1-oxoisoindolin-2-yl)piperidine-2,6-dione]",> 10000 nM,> 10000 nM,> 50 nM,> 50%,,,
"NC(=O)c1c(-c2ccc(Oc3ccccc3)cc2)nn2c1NCCC2C1CCN(CC2CCN(C(=O)N3CCC(C4CCN(c5ccc6c(c5)C(=O)N(C5CCC(=O)NC5=O)C6=O)CC4)CC3)CC2)CC1 (stereo not drawn) [Compound 365, 7-(1-((1-(1′-(2-(2,6-dioxopiperidin-3-yl)-1,3-dioxoisoindolin-5-yl)-[4,4′-bipiperidine]-1-carbonyl)piperidin-4-yl)methyl)piperidin-4-yl)-2-(4-phenoxyphenyl)-4,5,6,7-tetrahydropyrazolo[1,5-a]pyrimidine-3-carboxamide]",< 1000 nM,< 1000 nM,,,> 90%,10 to 50 nM,
"Nc1ncnc2c1c(-c1ccc(Oc3ccccc3)cc1)nn2C1CCN(CC2CN(CC3CN(c4ccc5c(c4)C(=O)N(C4CCC(=O)NC4=O)C5=O)C3)C2)CC1 (stereo not drawn) [Compound 441, 5-(3-((3-((4-(4-amino-3-(4-phenoxyphenyl)-1H-pyrazolo(3,4-d)pyrimidin-1-yl)piperidin-1-yl)methyl)azetidin-1-yl)methyl)azetidin-1-yl)-2-(2,6-dioxopiperidin-3-yl)isoindoline-1,3-dione]",> 10000 nM,> 10000 nM,,< 50%,,,dose-dependent degradation
"NC(=O)c1c(-c2ccc(Oc3ccccc3)cc2)nn2c1NCCC2C1CCN(CC2CCN(CCN3CCC(c4ccc5c(c4)C(=O)N(C4CCC(=O)NC4=O)C5=O)CC3)CC2)CC1 (stereo not drawn) [Compound 319, 7-(1-((1-(2-(4-(2-(2,6-dioxopiperidin-3-yl)-1,3-dioxoisoindolin-5-yl)piperidin-1-yl)ethyl)piperidin-4-yl)methyl)piperidin-4-yl)-2-(4-phenoxyphenyl)-4,5,6,7-tetrahydropyrazolo[1,5-a]pyrimidine-3-carboxamide]",1000 to 10000 nM,> 10000 nM,,,> 75%,10 to 50 nM,
"NC(=O)c1c(-c2ccc(Oc3ccccc3)cc2)nn2c1NCC[C@H]2C1CCN(CC2CCN(CCN3CCC(c4ccc5c(c4)CN(C4CCC(=O)NC4=O)C5=O)CC3)CC2)CC1 (stereo partly drawn) [Compound 336, (7S)-7-(1-((1-(2-(4-(2-(2,6-dioxopiperidin-3-yl)-1-oxoisoindolin-5-yl)piperidin-1-yl)ethyl)piperidin-4-yl)methyl)piperidin-4-yl)-2-(4-phenoxyphenyl)-4,5,6,7-tetrahydropyrazolo[1,5-a]pyrimidine-3-carboxamide]",1000 to 10000 nM,1000 to 10000 nM,,,> 75%,10 to 50 nM,
"Nc1ncnc2c1c(-c1ccc(Oc3ccccc3)cc1)nn2C1CCN(CCN2CC(CN3CCN(c4ccc5c(c4)CN(C4CCC(=O)NC4=O)C5=O)CC3)C2)CC1 (stereo not drawn) [Compound 462, 3-(5-(4-((1-(2-(4-(4-amino-3-(4-phenoxyphenyl)-1H-pyrazolo[3,4-d]pyrimidin-1-yl)piperidin-1-yl)ethyl)azetidin-3-yl)methyl)piperazin-1-yl)-1-oxoisoindolin-2-yl)piperidine-2,6-dione]",1000 to 10000 nM,1000 to 10000 nM,10 to 50 nM,> 50%,,,
"Nc1ncnc2c1c(-c1ccc(Oc3ccccc3)cc1)nn2C1CCN(C[C@H]2CCN(CC3CCN(c4ccc5c(c4)CN(C4CCC(=O)NC4=O)C5=O)CC3)C2)CC1 (stereo partly drawn) [Compound 446a, 3-(5-(4-(((R)-3-((4-(4-amino-3-(4-phenoxyphenyl)-1H-pyrazolo[3,4-d]pyrimidin-1-yl)piperidin-1-yl)methyl)pyrrolidin-1-yl)methyl)piperidin-1-yl)-1-oxoisoindolin-2-yl)piperidine-2,6-dione]",1000 to 10000 nM,1000 to 10000 nM,10 to 50 nM,> 90%,,,
